Where a SMILES comes first, the peptide text is derived from it.
Assay: Water solubility of peptides when preparing stock solutions
Type: physicochemical
Conditions: stock solution in sterile distilled water or 100% DMSO; read-out: solubility of peptide (water soluble or water insoluble, dissolved in DMSO)
Procedure: For challenge, peptides were administered as follows: • Individual peptides (soluble). Individual water soluble peptides were dissolved as 10, 5 or 2.5 mg/ml stock solutions in sterile distilled water. Before use, each peptide was diluted in water to 2 mg/ml and 10 μl of this 2 mg/ml mix was added to 990 μl of media. Then 100 μl of this peptide/media mix was added to 100 μl of media containing 350,000 PBMC in an ELISPOT anti-IL-4 coated cell culture plate well for a final peptide concentration of 10 μg/ml. Identically diluted media only was added to the cells and used for the no peptide media control wells (media only). • Individual peptides (DMSO). Individual water insoluble peptides were dissolved in 100% DMSO to a stock concentration of 50 mg/ml. Before use each peptide was diluted in water to 2 mg/ml and then 10 μl of the 2 mg/ml mix was added to 990 μl of cell-culture media. Then 100 μl of this peptide/media mix was added to 100 μl of media containing 350,000 PBMC in an ELISPOT anti-IL-4 coated cell culture plate well for a final peptide concentration of 10 μg/ml. Identically diluted media only was added to the cells and used for the no peptide media control wells (media only). • A combination preparation containing Alt a 1 soluble peptides (33.2, 34.3, 35.4, 35.5, 37.3.1, 37.4.1, L6-5.01, L10-1.01, L10-2.01, L10-3), called Alt a 1 Sol. Each peptide was diluted from water stock to 2 mg/ml in sterile distilled water. Then 10 μl of each peptide required for the combined preparation was mixed and brought up to 1 ml in media. Then 100 μl of this peptide/media mix was added to 100 μl of media containing 350,000 PBMC in an ELISPOT anti-IL-4 coated cell culture plate well for a final concentration of each peptide of 10 μg/ml. Identically diluted media only was used for the no peptide control wells (media only). • A combination preparation containing Alt a 1 DMSO peptides (32.2.1, 38.2.1, 35.2, 35.3, L6-2, L6-3, L6-4, 38.3, 37.2), called Alt a 1 DMSO. Each peptide was diluted from DMSO stock to 2 mg/ml in sterile distilled water. Then 10 μl of each peptide required for the combined preparation was mixed and brought up to 1 ml in media. Then 100 μl of this peptide/media mix is added to 100 μl of media containing 350,000 PBMC in an ELISPOT anti-IL-4 coated cell culture plate well for a final concentration of each peptide of 10 μg/ml. Identically diluted media only was used for the no peptide control wells (media only). • A combination preparation containing non-Alt a 1 soluble peptides (40.2, 41.2, 43.2, 44.2, 46.2, 47.2.1, 56.2, 57.2.1, 60.2, 62.2.1, 67.2, 71.3), called Alt a Other Sol. Each peptide was diluted from water stock to 2 mg/ml in sterile distilled water. Then 10 μl of each peptide required for the combined preparation was mixed and brought up to 1 ml in media, Then 100 μl of this peptide/media mix was added to 100 μl of media containing 350,000 PBMC in an ELISPOT anti-IL-4 coated cell culture plate well for a final concentration of each peptide at 10 μg/ml. Identically diluted media only was used for the no peptide control wells (media only). • A combination preparation containing non-Alt a 1 DMSO peptides (39.2, 42.2, 45.2, 48.2.1, 50.2, 51.2.1, 61.2.1, 66.3.1, 68.2.1, 70.2, 71.2, 72.2), called Alt a Other DMSO. Each peptide was diluted from DMSO stock to 2 mg/ml in sterile distilled water. Then 10 ul of each peptide required for the combined preparation was mixed and brought up to 1 ml in media, Then 100 μl of this peptide/media mix was added to 100 μl of media containing 350,000 PBMC in an ELISPOT anti-IL-4 coated cell culture plate well for a final concentration of each peptide at 10 μg/ml. Identically diluted media only was used for the no peptide control wells (media only).

CC[C@H](C)[C@H](NC(=O)[C@@H](NC(=O)[C@@H](NC(=O)[C@H](Cc1ccccc1)NC(=O)[C@H](CCC(N)=O)NC(=O)[C@@H](N)CC(C)C)[C@@H](C)O)[C@@H](C)O)C(=O)N[C@@H](C)C(=O)N[C@@H](CO)C(=O)N[C@@H](CC(C)C)C(=O)N[C@@H](Cc1ccccc1)C(=O)N[C@@H](C)C(=O)N[C@@H](C)C(=O)N[C@@H](C)C(=O)NCC(=O)N[C@@H](CC(C)C)C(=O)O [Peptide 32.2.1, LQFTTIASLFAAAGL] (H-LQFTTIASLFAAAGL-OH)
solubility: < 2500 µg/mL

CC(C)C[C@H](NC(=O)CNC(=O)[C@H](C)NC(=O)[C@H](C)N)C(=O)N[C@@H](C)C(=O)N[C@@H](C)C(=O)N[C@@H](C)C(=O)N[C@@H](C)C(=O)N1CCC[C@H]1C(=O)N[C@@H](CC(C)C)C(=O)N[C@@H](CCC(=O)O)C(=O)N[C@@H](CO)C(=O)N[C@@H](CCCNC(=N)N)C(=O)N[C@@H](CCC(N)=O)C(=O)N[C@@H](CC(=O)O)C(=O)O [Peptide 33.2, AAGLAAAAPLESRQD] (H-AAGLAAAAPLESRQD-OH)
solubility: > 2500 µg/mL

CC[C@H](C)[C@H](NC(=O)[C@H](CCCCN)NC(=O)[C@H](Cc1c[nH]c2ccccc12)NC(=O)[C@@H](NC(=O)[C@H](Cc1ccc(O)cc1)NC(=O)[C@@H](N)CC(=O)O)C(C)C)C(=O)N[C@@H](CO)C(=O)N[C@@H](CCC(=O)O)C(=O)N[C@@H](Cc1ccccc1)C(=O)N[C@@H](Cc1ccc(O)cc1)C(=O)NCC(=O)N[C@@H](CCCNC(=N)N)C(=O)N[C@@H](CCCCN)C(=O)N1CCC[C@H]1C(=O)N[C@@H](CCC(=O)O)C(=O)O [Peptide 34.3, DYVWKISEFYGRKPE] (H-DYVWKISEFYGRKPE-OH)
solubility: > 2500 µg/mL

CC[C@H](C)[C@H](NC(=O)[C@H](CC(N)=O)NC(=O)[C@H](Cc1ccccc1)NC(=O)CNC(=O)[C@H](CC(C)C)NC(=O)[C@H](CO)NC(=O)[C@H](CC(N)=O)NC(=O)[C@H](Cc1ccc(O)cc1)NC(=O)[C@H](Cc1ccc(O)cc1)NC(=O)[C@@H](NC(=O)CNC(=O)[C@@H](N)CCC(=O)O)[C@@H](C)O)C(=O)N[C@@H](CCCCN)C(=O)N[C@@H](C)C(=O)N[C@H](C(=O)O)[C@@H](C)O [Peptide 35.2, EGTYYNSLGFNIKAT] (H-EGTYYNSLGFNIKAT-OH)
solubility: < 2500 µg/mL

CC[C@H](C)[C@H](NC(=O)[C@H](CC(N)=O)NC(=O)[C@H](Cc1ccccc1)NC(=O)CNC(=O)[C@H](CC(C)C)NC(=O)[C@H](CO)NC(=O)[C@H](CC(N)=O)NC(=O)[C@@H](N)Cc1ccc(O)cc1)C(=O)N[C@@H](CCCCN)C(=O)N[C@@H](C)C(=O)N[C@H](C(=O)N[C@@H](CC(N)=O)C(=O)NCC(=O)NCC(=O)N[C@H](C(=O)O)[C@@H](C)O)[C@@H](C)O [Peptide 35.3, YNSLGFNIKATNGGT] (H-YNSLGFNIKATNGGT-OH)
solubility: < 2500 µg/mL

CC[C@H](C)[C@H](NC(=O)[C@H](CC(N)=O)NC(=O)[C@H](Cc1ccccc1)NC(=O)CNC(=O)[C@H](CC(C)C)NC(=O)[C@@H](N)CO)C(=O)N[C@@H](CCCCN)C(=O)N[C@@H](C)C(=O)N[C@H](C(=O)N[C@@H](CC(N)=O)C(=O)NCC(=O)NCC(=O)N[C@H](C(=O)N[C@@H](CC(C)C)C(=O)N[C@@H](CC(=O)O)C(=O)O)[C@@H](C)O)[C@@H](C)O [Peptide 35.4, SLGFNIKATNGGTLD] (H-SLGFNIKATNGGTLD-OH)
solubility: > 2500 µg/mL

CC[C@H](C)[C@H](NC(=O)[C@H](CC(N)=O)NC(=O)[C@H](Cc1ccccc1)NC(=O)CN)C(=O)N[C@@H](CCCCN)C(=O)N[C@@H](C)C(=O)N[C@H](C(=O)N[C@@H](CC(N)=O)C(=O)NCC(=O)NCC(=O)N[C@H](C(=O)N[C@@H](CC(C)C)C(=O)N[C@@H](CC(=O)O)C(=O)N[C@@H](Cc1ccccc1)C(=O)N[C@H](C(=O)O)[C@@H](C)O)[C@@H](C)O)[C@@H](C)O [Peptide 35.5, GFNIKATNGGTLDFT] (H-GFNIKATNGGTLDFT-OH)
solubility: > 2500 µg/mL

CC[C@H](C)[C@H](NC(=O)[C@H](CC(=O)O)NC(=O)[C@H](CC(=O)O)NC(=O)[C@@H](N)CO)C(=O)N[C@H](C(=O)N[C@@H](Cc1ccc(O)cc1)C(=O)N[C@H](C(=O)N[C@@H](C)C(=O)N[C@H](C(=O)N[C@@H](C)C(=O)N[C@H](C(=O)N[C@@H](CC(C)C)C(=O)N1CCC[C@H]1C(=O)N[C@@H](CC(N)=O)C(=O)N[C@@H](Cc1ccc(O)cc1)C(=O)O)[C@@H](C)O)[C@@H](C)O)C(C)C)[C@@H](C)O [Peptide 37.2, SDDITYVATATLPNY] (H-SDDITYVATATLPNY-OH)
solubility: < 2500 µg/mL

CC[C@H](C)[C@H](NC(=O)[C@@H](N)CC(=O)O)C(=O)N[C@H](C(=O)N[C@@H](Cc1ccc(O)cc1)C(=O)N[C@H](C(=O)N[C@@H](C)C(=O)N[C@H](C(=O)N[C@@H](C)C(=O)N[C@H](C(=O)N[C@@H](CC(C)C)C(=O)N1CCC[C@H]1C(=O)N[C@@H](CC(N)=O)C(=O)N[C@@H](Cc1ccc(O)cc1)C(=O)N[C@H](C(=O)N[C@@H](CCCNC(=N)N)C(=O)O)C(C)C)[C@@H](C)O)[C@@H](C)O)C(C)C)[C@@H](C)O [Peptide 37.3.1, DITYVATATLPNYVR] (H-DITYVATATLPNYVR-OH)
solubility: > 2500 µg/mL

CC(C)C[C@H](NC(=O)[C@@H](NC(=O)[C@H](C)NC(=O)[C@@H](N)[C@@H](C)O)[C@@H](C)O)C(=O)N1CCC[C@H]1C(=O)N[C@@H](CC(N)=O)C(=O)N[C@@H](Cc1ccc(O)cc1)C(=O)N[C@H](C(=O)N[C@@H](CCCNC(=N)N)C(=O)N[C@@H](C)C(=O)NCC(=O)NCC(=O)N[C@@H](CC(N)=O)C(=O)NCC(=O)N1CCC[C@H]1C(=O)O)C(C)C [Peptide 37.4.1, TATLPNYVRAGGNGP] (H-TATLPNYVRAGGNGP-OH)
solubility: > 2500 µg/mL

CC[C@H](C)[C@H](NC(=O)[C@H](Cc1ccc(O)cc1)NC(=O)[C@H](C)NC(=O)[C@H](CC(=O)O)NC(=O)[C@H](C)NC(=O)[C@@H](NC(=O)CNC(=O)[C@H](CCC(N)=O)NC(=O)[C@@H](NC(=O)[C@@H](NC(=O)[C@H](Cc1ccccc1)NC(=O)[C@H](CC(=O)O)NC(=O)[C@H](CCCCN)NC(=O)[C@@H]1CCCN1)C(C)C)C(C)C)C(C)C)C(=O)N[C@H](C(=O)O)[C@@H](C)O [Peptide 38.2.1, PKDFVVQGVADAYIT] (H-PKDFVVQGVADAYIT-OH)
solubility: < 2500 µg/mL

CC[C@H](C)[C@H](NC(=O)[C@H](Cc1ccc(O)cc1)NC(=O)[C@H](C)NC(=O)[C@H](CC(=O)O)NC(=O)[C@H](C)NC(=O)[C@@H](N)C(C)C)C(=O)N[C@H](C(=O)N[C@@H](CC(C)C)C(=O)N[C@H](C(=O)N[C@H](C(=O)N[C@@H](CC(C)C)C(=O)N1CCC[C@H]1C(=O)N[C@@H](CCCCN)C(=O)N[C@@H](CO)C(=O)N[C@@H](CO)C(=O)O)[C@@H](C)O)C(C)C)[C@@H](C)O [Peptide 38.3, VADAYITLVTLPKSS]
solubility: < 2500 µg/mL

CC(C)C[C@H](NC(=O)[C@H](CCCNC(=N)N)NC(=O)[C@H](CC(N)=O)NC(=O)[C@@H](N)CC(=O)O)C(=O)N[C@H](C(=O)N[C@@H](CC(N)=O)C(=O)N[C@@H](Cc1c[nH]cn1)C(=O)N[C@@H](Cc1ccccc1)C(=O)N[C@H](C(=O)N[C@@H](CC(N)=O)C(=O)N[C@@H](CCC(=O)O)C(=O)N[C@@H](Cc1ccccc1)C(=O)N[C@@H](CCCCN)C(=O)N[C@@H](CCCNC(=N)N)C(=O)N[C@@H](CCCCN)C(=O)O)[C@@H](C)O)C(C)C [Peptide 40.2, DNRLVNHFTNEFKRK] (H-DNRLVNHFTNEFKRK-OH; N-terminus and C-terminus assumed)
solubility: > 2500 µg/mL
